In this test the target is MAPK14 (human) (UniProt Q16539). Nature of the test: Inhibition of MAPK14 Kinase Activity by PHAS-I Assay. The note with it: for inhibition: concentration not given here.

The inhibition is how much of the control response was suppressed. Usually IC50 stands for the concentration at which inhibition is half-maximal.

Structures are written as SMILES.

Sequence of MAPK14 (human) (Q16539 whole entry, looked up): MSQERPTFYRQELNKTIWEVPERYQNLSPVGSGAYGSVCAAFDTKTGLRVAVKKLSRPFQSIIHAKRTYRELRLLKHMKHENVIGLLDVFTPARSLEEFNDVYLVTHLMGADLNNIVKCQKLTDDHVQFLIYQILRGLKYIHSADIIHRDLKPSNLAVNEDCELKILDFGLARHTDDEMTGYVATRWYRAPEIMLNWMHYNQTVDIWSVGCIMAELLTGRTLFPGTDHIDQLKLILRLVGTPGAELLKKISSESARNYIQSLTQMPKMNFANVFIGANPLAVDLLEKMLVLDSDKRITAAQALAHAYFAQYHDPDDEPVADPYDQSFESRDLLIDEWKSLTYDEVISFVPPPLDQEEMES

As for `CCCCCCCOc1ccc(NC(=O)Cn2nc(-c3ccc(F)cc3)c(-c3ccncc3)c2C)cc1`, the inhibition stood at 89%. On the same count and under the same terms, for `O=C(NCCCc1[nH]nc(-c2ccc(F)cc2)c1-c1ccncc1)c1cccc(Br)c1` the value was 70%; for `Cc1ccc(C)c(C(=O)c2ccccc2NC(=O)Cn2nc(-c3ccc(F)cc3)c(-c3ccncc3)c2C)c1`, 84%; for `CCOC(=O)N1CCC(NC(=O)Cn2nc(-c3ccc(F)cc3)c(-c3ccncc3)c2C)CC1`, 72%. Same read-out and setting: for `Cc1c(-c2ccncc2)c(-c2ccc(F)cc2)nn1CC(=O)Nc1ccc(CSc2ccc(Cl)cc2)cc1` the value was 67%.

The compound `Cc1c(-c2ccncc2)c(-c2ccc(F)cc2)nn1CC(=O)NC1CCC1` registered an inhibition of 81%. `O=C(NCCc1[nH]nc(-c2ccc(F)cc2)c1-c1ccncc1)C1CC1` displayed an inhibition of 85%. Compound `O=S(=O)(Cc1ccccc1)NCCCc1[nH]nc(-c2ccc(F)cc2)c1-c1ccncc1` showed an inhibition of 87%.

Turning to `CCCCNS(=O)(=O)c1cccc(NC(=O)Cn2nc(-c3ccc(F)cc3)c(-c3ccncc3)c2C)c1`, the inhibition is 77%. Regarding `CCOC(=O)N1CCC(Nc2n[nH]c(-c3ccc(Cl)cc3)c2-c2ccncc2)CC1`, the concentration for half-maximal inhibition (IC50) was over 100000 nM. Same read-out and setting: for `CC1CCCCN1CCCNc1cc(-c2c[nH]nc2-c2ccc(F)cc2)ccn1` (centres undefined) the value was 530 nM. The compound `CC(C)NC(=O)NCCCc1[nH]nc(-c2ccc(F)cc2)c1-c1ccncc1` came in with an inhibition of 81%.

`CC(=O)Nc1ccc(S(=O)(=O)NCc2[nH]nc(-c3ccc(F)cc3)c2-c2ccncc2)cc1` gave an inhibition of 66%. Same read-out and setting: for `Cc1c(-c2ccncc2)c(-c2ccc(F)cc2)nn1CC(=O)Nc1ccc(OCCOc2ccccc2)cc1` the value was 75%. The same measure, in the same setting: for `Cc1c(-c2ccncc2)c(-c2ccc(F)cc2)nn1CC(=O)NC1CCCCC1C1CCCCC1` (centres undefined) the value was 45%.

In turn, `Cc1c(-c2ccncc2)c(-c2ccc(F)cc2)nn1CC(=O)N(C)CCc1ccccc1` registered an inhibition of 32%.

`CN(C(=O)NCCCc1[nH]nc(-c2ccc(F)cc2)c1-c1ccncc1)c1ccccc1` showed an inhibition of 76%. For `Cc1c(-c2ccncc2)c(-c2ccc(F)cc2)nn1CC(=O)N(C)CCc1ccncc1`, the inhibition was found to be 38%. Same read-out and setting: for `CNC(=O)NCCCc1[nH]nc(-c2ccc(F)cc2)c1-c1ccncc1` the value was 84%. Consider `Cc1c(-c2ccncc2)c(-c2ccc(F)cc2)nn1CC(=O)N(C)CC(N)=O`, for which the inhibition stood at 60%.

In turn, `O=C(NCCCc1[nH]nc(-c2ccc(F)cc2)c1-c1ccncc1)[C@H]1CCCN1` gave an inhibition of 81%. The compound `O=C(NCCCc1[nH]nc(-c2ccc(F)cc2)c1-c1ccncc1)c1cccnc1` showed an inhibition of 72%. Same read-out and setting: for `Cc1c(-c2ccncc2)c(-c2ccc(F)cc2)nn1CC(=O)NC1CCCCC1` the value was 49%; for `COCCN(CC1CCCCC1)C(=O)Cn1nc(-c2ccc(F)cc2)c(-c2ccncc2)c1C`, 63%. For `CCCCC(C)NC(=O)Cn1nc(-c2ccc(F)cc2)c(-c2ccncc2)c1C` (centres undefined), the inhibition was 75%. Same read-out and setting: in the case of `COc1ccc(OC)c(NC(=O)Cn2nc(-c3ccc(F)cc3)c(-c3ccncc3)c2C)c1` it was 85%; in that of `O=C(NCCCc1[nH]nc(-c2ccc(F)cc2)c1-c1ccncc1)NCc1ccccc1`, 82%; in that of `Cc1c(-c2ccncc2)c(-c2ccc(F)cc2)nn1CC(=O)NC(C)CCc1ccccc1` (centres undefined), 35%.

For the compound `CCN1CC(NC(=O)Cn2nc(-c3ccc(F)cc3)c(-c3ccncc3)c2C)CN1CC`, the inhibition came to 47%.

For the compound `O=C(NCCCc1[nH]nc(-c2ccc(F)cc2)c1-c1ccncc1)c1ccccc1I`, the inhibition was 66%. `N#CCNc1[nH]nc(-c2ccc(F)cc2)c1-c1ccncc1` returned an IC50 of 17 nM.

In turn, `CCN(CC)CCN(CCN(CC)CC)C(=O)Cn1nc(-c2ccc(F)cc2)c(-c2ccncc2)c1C` had an inhibition of 47%. The compound `Cc1c(-c2ccncc2)c(-c2ccc(F)cc2)nn1CC(=O)NC1CCC(C(C)(C)C)CC1` (centres undefined) gave an inhibition of 38%. For `C[C@@H](NC(=O)NCc1[nH]nc(-c2ccc(F)cc2)c1-c1ccncc1)c1ccccc1`, the half-inhibitory concentration (IC50) came to 910 nM. Take `O=C(NCc1[nH]nc(-c2ccc(F)cc2)c1-c1ccncc1)c1cccc2ccccc12`: the inhibition was 91%. For `CCN1CCN(C(=O)Cn2nc(-c3ccc(F)cc3)c(-c3ccncc3)c2C)CC1`, the inhibition was 65%.

`O=C(NCCCc1[nH]nc(-c2ccc(F)cc2)c1-c1ccncc1)Nc1ccc(F)cc1` returned an inhibition of 88%. The same measure, in the same setting: for `CCNC(=O)NCCCc1[nH]nc(-c2ccc(F)cc2)c1-c1ccncc1` the value was 89%; for `CC(C)OC(=O)NCCc1[nH]nc(-c2ccc(F)cc2)c1-c1ccncc1`, 85%; for `O=C(NCCCc1[nH]nc(-c2ccc(F)cc2)c1-c1ccncc1)c1ccc(F)cc1`, 64%.

`Cc1c(-c2ccncc2)c(-c2ccc(F)cc2)nn1CC(=O)NC1CCCc2ccccc21` (centres undefined) showed an inhibition of 76%.

With `Cc1c(-c2ccncc2)c(-c2ccc(F)cc2)nn1CC(=O)Nc1cccc(Br)c1`, the inhibition turned out to be 88%. In turn, `Cc1c(-c2ccncc2)c(-c2ccc(F)cc2)nn1CC(=O)NC(Cc1ccccc1)c1ccccc1` (centres undefined) gave an inhibition of 44%.

Take `CC(C)OC(=O)NCCCc1[nH]nc(-c2ccc(F)cc2)c1-c1ccncc1`: the inhibition was 89%.

The compound `CSc1ccccc1NC(=O)Cn1nc(-c2ccc(F)cc2)c(-c2ccncc2)c1C` had an inhibition of 82%. The same measure, in the same setting: for `CC(C)C(=O)NCCCc1[nH]nc(-c2ccc(F)cc2)c1-c1ccncc1` the value was 79%; for `Cc1c(-c2ccncc2)c(-c2ccc(F)cc2)nn1CC(=O)NC1CCSc2ccccc21` (centres undefined), 76%. In turn, `O=C(Nc1ccccc1F)N[C@H](Cc1ccccc1)c1[nH]nc(-c2ccc(F)cc2)c1-c1ccncc1` had an IC50 of 21000 nM. For the compound `CCCCCCOc1ccc(NC(=O)Cn2nc(-c3ccc(F)cc3)c(-c3ccncc3)c2C)cc1`, the inhibition stood at 80%. Take `O=C(NCCCc1[nH]nc(-c2ccc(F)cc2)c1-c1ccncc1)Nc1ccccc1`: the inhibition came to 81%. With `COc1ccc(-c2[nH]nc(C)c2-c2ccncc2)cc1Cl`, the 50% inhibitory concentration (IC50) is 100 nM. In turn, `O=S(=O)(NCCCc1[nH]nc(-c2ccc(F)cc2)c1-c1ccncc1)c1cccs1` yielded an inhibition of 84%. The same measure, in the same setting: in the case of `Cc1c(-c2ccncc2)c(-c2ccc(F)cc2)nn1CC(=O)N1CCOCC1` it was 70%; in that of `O=S(=O)(NCc1[nH]nc(-c2ccc(F)cc2)c1-c1ccncc1)c1cccc2cccnc12`, 73%; in that of `Cc1c(-c2ccncc2)c(-c2ccc(F)cc2)nn1CC(=O)Nc1ccccc1Oc1ccc(Cl)cc1`, 86%.

In turn, `COc1ccc(NC(=O)NCCc2[nH]nc(-c3ccc(F)cc3)c2-c2ccncc2)c(OC)c1` yielded an inhibition of 49%.

Consider `CC(C)(C)C(=O)NCCCc1[nH]nc(-c2ccc(F)cc2)c1-c1ccncc1`, for which the inhibition is 87%. The same measure, in the same setting: for `Cc1c(-c2ccncc2)c(-c2ccc(F)cc2)nn1CC(=O)NC1CCN(CCc2c[nH]c3ccccc23)CC1` the value was 84%. Still for that read-out and setting: for `O=C(Cc1cccs1)NCCCc1[nH]nc(-c2ccc(F)cc2)c1-c1ccncc1` the value was 90%; for `CC(C)C(=O)NCCc1[nH]nc(-c2ccc(F)cc2)c1-c1ccncc1`, 75%; for `O=C(NCCCc1[nH]nc(-c2ccc(F)cc2)c1-c1ccncc1)Nc1ccccc1F`, 86%. In the case of `CCN(CC)CC(C)NC(=O)Cn1nc(-c2ccc(F)cc2)c(-c2ccncc2)c1C` (centres undefined), the inhibition was found to be 46%. On the same count and under the same terms, for `CCCCS(=O)(=O)NCCCc1[nH]nc(-c2ccc(F)cc2)c1-c1ccncc1` the value was 87%; for `CC(C)COC(=O)NCCc1[nH]nc(-c2ccc(F)cc2)c1-c1ccncc1`, 75%; for `CS(=O)(=O)NCCCc1[nH]nc(-c2ccc(F)cc2)c1-c1ccncc1`, 84%.

For the compound `CCN(CC)C(=O)N[C@@H](Cc1ccccc1)c1[nH]nc(-c2ccc(F)cc2)c1-c1ccncc1`, the IC50 is 2200 nM. Turning to `O=C(NCCCc1[nH]nc(-c2ccc(F)cc2)c1-c1ccncc1)c1ccno1`, the inhibition stood at 80%. For `O=C(N[C@H](Cc1ccccc1)c1[nH]nc(-c2ccc(F)cc2)c1-c1ccncc1)c1cnc2ccccc2n1`, the IC50 was found to be 38100 nM.

`Cc1ccc(C(=O)NCCCc2[nH]nc(-c3ccc(F)cc3)c2-c2ccncc2)cc1` returned an inhibition of 86%. Take `COCC(=O)N[C@H]1CC[C@@H](c2[nH]nc(-c3ccc(Cl)cc3)c2-c2ccncc2)CC1`: the IC50 is 77 nM.

Take `NC(=O)NCCCc1[nH]nc(-c2ccc(F)cc2)c1-c1ccncc1`: the inhibition stood at 90%. Regarding `CNCCCNC(=O)CSc1[nH]nc(-c2ccc(Cl)cc2)c1-c1ccncc1`, the IC50 was 1660 nM. Turning to `CC(=O)OC(C)(C)C(=O)NCCCc1[nH]nc(-c2ccc(F)cc2)c1-c1ccncc1`, the inhibition came to 74%.

The compound `COCC(=O)NCCCc1[nH]nc(-c2ccc(F)cc2)c1-c1ccncc1` showed an inhibition of 78%. The same measure, in the same setting: for `COC(=O)[C@H](CC(C)C)NC(=O)Cn1nc(-c2ccc(F)cc2)c(-c2ccncc2)c1C` the value was 47%; for `Cc1c(-c2ccncc2)c(-c2ccc(F)cc2)nn1CC(=O)Nc1cccc(F)c1`, 92%. In turn, `Cc1cccc(NC(=O)Cn2nc(-c3ccc(F)cc3)c(-c3ccncc3)c2C)c1` returned an inhibition of 86%. `O=C(Nc1ccccc1F)N[C@@H](Cc1ccccc1)c1[nH]nc(-c2ccc(F)cc2)c1-c1ccncc1` registered an IC50 of 14000 nM. Regarding `O=C(Nc1ccccc1)N[C@@H](Cc1ccccc1)c1[nH]nc(-c2ccc(F)cc2)c1-c1ccncc1`, the IC50 worked out at 2600 nM. On to `CCOC(=O)CC(C)NC(=O)Cn1nc(-c2ccc(F)cc2)c(-c2ccncc2)c1C` (centres undefined), for which the inhibition was 43%. On the same count and under the same terms, in the case of `CCCOC(=O)NCCc1[nH]nc(-c2ccc(F)cc2)c1-c1ccncc1` it was 78%; in that of `Cc1c(-c2ccncc2)c(-c2ccc(F)cc2)nn1CC(=O)N(CCc1ccccc1)CCc1ccccn1`, 43%; in that of `Cc1c(-c2ccncc2)c(-c2ccc(F)cc2)nn1CC(=O)NC(C)c1ccc(Br)cc1` (centres undefined), 71%. Still for that read-out and setting: in the case of `COC(=O)C(Cc1ccc([N+](=O)[O-])cc1)NC(=O)Cn1nc(-c2ccc(F)cc2)c(-c2ccncc2)c1C` (centres undefined) it was 75%.

The values are drawn from the Kinase Knowledgebase extract (Sharma et al. 2016).
